{"source": "patent US6479265B1", "about": "“Catalytic antibodies which hydrolyze primary amides and methods for eliciting and use of such antibodies” (Igen International, Inc., priority 1993, dated 2002)", "system": "13D11", "test": "Inhibition of hydrolysis of 10 by 13D11 (secondary screening)", "type": "biochemical, mice", "details": "buffer tried as an alternative to Tris", "method": "Antibody 13D11 (14.5 μM) was re-screened for activity toward 10 (nominally 500 μM) in the absence and presence of 63 μM (RT-2 hapten)(D/L mixture).\nUntil this point, 13D11 antibody had been purified by Protein A and DEAE chromatography. To determine whether the activity toward 10 was due to a contaminating enzyme, 13D11 was further purified on a Mono Q column (Pharmacia) by FPLC."}
{"smiles": "O=S(=O)(O)CCNC1CCCCC1", "note": "[CHES]", "values": [{"measurement": "inhibition of the hydrolysis of 10 by 13D11", "value": "found to inhibit"}]}
